Paper PMC6312196 (ChemMedChem, 2018)
Changes are numbered by the printed parent chain. Like-named read-outs stand apart in the source and are kept apart here.

Legend:
[1] = tested on: KCL22-IR; assay: Cellular proliferation assay; type: cell-based; settings: 72 h
[2] = target: T1, ABL1 (Homo sapiens, UniProt P00519); assay: Enzymatic inhibition of ABL1 wild type; type: biochemical; settings: read-out: IC50 ABL1 wild type; enzyme, Figure 8A
T1 sequence (P00519 242-493 limits assumed): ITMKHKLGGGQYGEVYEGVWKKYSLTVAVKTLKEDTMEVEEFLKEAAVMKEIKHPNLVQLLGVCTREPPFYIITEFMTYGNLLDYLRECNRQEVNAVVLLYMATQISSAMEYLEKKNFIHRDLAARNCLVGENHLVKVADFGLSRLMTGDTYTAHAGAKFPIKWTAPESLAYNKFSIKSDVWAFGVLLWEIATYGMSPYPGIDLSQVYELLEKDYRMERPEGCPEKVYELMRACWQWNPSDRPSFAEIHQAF

[3] = target: T2, ABL1(T315I) (Homo sapiens, UniProt P00519, T315I); assay: Enzymatic inhibition of ABL1; type: biochemical; settings: read-out: IC50 ABL1(T315I); enzyme, Figure 8B
T2 sequence (P00519 242-493 T315I limits assumed): T1 sequence (P00519 242-493 limits assumed) with T74I

[4] = tested on: K562; assay: Cellular proliferation assay; type: cell-based; settings: read-out: IC50 (mean ±SD) K562
[5] = tested on: KCL22; assay: Cellular proliferation assay; type: cell-based; settings: read-out: IC50 (mean ±SD) KCL22
[6] = target: ABL1(T315I) (Homo sapiens, UniProt P00519+P11274, T315I); assay: Cellular ABL1 kinase phosphorylation assay in KCL22-IR; settings: read-out: IC50 (mean ±SD) cellular ABL1 activity, KCL22-IR; 2 hours incubation, KCL22-T315I cells
[7] = cited from earlier work
[8] = read-out: IC50 (mean ±SD) KCL22-IR, anti-proliferation, T315I mutation

Row | IC50 [2] | IC50 [3] | IC50 ([4]; anti-proliferation, 72 h) | IC50 [6] | SMILES | IC50 ([1]; read-out: IC50 KCL22-IR (bound cells)) | IC50 ([5]; anti-proliferation, 72 h) | IC50 [1, 8] | IC50 ([4]; Homo sapiens, K562, 72 h) | IC50 ([5]; Homo sapiens, KCL-22, 72 h) | IC50 ([1]; read-out: IC50 (mean ±SD) KCL22-IR) | patients reporting serious and non-serious thrombotic events ([7]; cardiovascular, cerebrovascular, peripheral vascular events) | deaths linked to the use of the drug ([7]; study n=499)
1 | – | – | – | – | Cc1ccc(NC(=O)c2ccc(CN3CCN(C)CC3)cc2)cc1Nc1nccc(-c2cccnc2)n1 [Imatinib, reference compound] | > 1000 nM | – | – | – | – | – | – | –
2 | < 5 nM | 32.8 nM | 0.688 ± 0.003 nM | 36.4 ± 1.1 nM | CN1CCN(Cc2ccc(NC(=O)c3cncc(C#Cc4c(N)ncc5ccc(F)cc45)c3)cc2C(F)(F)F)CC1 [Compound 29] | – | 0.444 ± 0.008 nM | 4.1 ± 0.03 nM | – | – | – | – | –
3 | – | – | 1.85 ± 0.03 nM | – | Cc1ccc(C(=O)Nc2ccc(CN3CCN(C)CC3)c(C(F)(F)F)c2)cc1C#Cc1cnc(N)c2ncccc12 [Compound 9] | – | 0.18 ± 0.004 nM | 0.74 ± 0.004 nM | – | – | – | – | –
4 | – | – | – | – | Cc1ccc(C(=O)Nc2ccc(CN3CCN(C)CC3)c(C(F)(F)F)c2)cc1C#Cc1cnc2cccnn12 [Ponatinib, reference compound] | – | – | – | 0.6003 ± 0.0023 nM | 0.142 ± 0.003 nM | 0.66 ± 0.005 nM | 17.1% | Five
5 | < 5 nM | 4.7 nM | 1.75 ± 0.04 nM | 18.9 ± 1.1 nM | Cc1ncc(C(=O)Nc2ccc(CN3CCN(C)CC3)c(C(F)(F)F)c2)cc1C#Cc1cnc(N)c2ncccc12 [Compound 15] | – | 0.303 ± 0.002 nM | 2.67 ± 0.07 nM | – | – | – | – | –

Row | SMILES | IC50 [2] | IC50 [3] | IC50 ([4]; anti-proliferation, 72 h) | IC50 [6] | IC50 ([1]; read-out: IC50 KCL22-IR (bound cells)) | IC50 ([5]; anti-proliferation, 72 h) | IC50 [1, 8] | IC50 ([4]; Homo sapiens, K562, 72 h) | IC50 ([5]; Homo sapiens, KCL-22, 72 h) | IC50 ([1]; read-out: IC50 (mean ±SD) KCL22-IR) | patients reporting serious and non-serious thrombotic events ([7]; cardiovascular, cerebrovascular, peripheral vascular events) | deaths linked to the use of the drug ([7]; study n=499)
6 | CN1CCN(Cc2ccc(NC(=O)c3cncc(C#Cc4cnc(N)c5ncccc45)c3)cc2C(F)(F)F)CC1 [Compound 16] | < 5 nM | 40.7 nM | 0.765 ± 0.005 nM | 26 ± 1.1 nM | – | 1.02 ± 0.04 nM | 4.14 ± 0.11 nM | – | – | – | – | –
